The test system of one series is Target C mRNA. Put plainly: Gene panel canonical junction qPCR assay, Target C CJ mRNA decrease. Particulars: Homo sapiens, canonical junction qPCR, read-out: Target C IC50 (decrease in CJ mRNA levels). In kind it is cell-based. In outline:
(§1)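 A673 or K562 cells treated with compound; canonical exon-exon junction mRNA quantified by cDNA synthesis and RT-qPCR with junction-spanning primer/probe, normalized to GAPDH, GUSB or PPIA and DMSO (2^(−ΔΔCt)). Percent response from set ΔCt assay windows fitted to 4-parameter logistic; IC50 for CJ decrease.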

The subject of a further series is HTT mRNA. Put plainly: Gene panel canonical junction qPCR assay, HTT CJ mRNA decrease. In kind it is cell-based, human. To be noted: Homo sapiens, canonical junction qPCR, read-out: HTT IC50 (decrease in CJ mRNA levels). An outline of the steps:
as §1

The next series concerns K562 cells. Put plainly: Cell Titer Glo 2.0 cell viability assay in K562 cells. Particulars: 72 hours.
Another series deals with HiBiT-tagged HTT protein. Put plainly: HiBiT protein abundance assay, HTT (K562 HiBiT knock-in cells). To be noted: 24 hours. In kind it is cell-based, human. An outline of the steps: (§2)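 Luminescent readout of HiBiT-tagged endogenous protein after lysis, following 24 h compound exposure of knock-in K562 lines at 37 °C. Ten 3-fold concentrations from 10 μM final, DMSO ≤0.25%. Four-parameter logistic fit of normalized response gives concentration halving abundance (IC50).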

A further series has as its system HiBiT-tagged MYB protein. Put plainly: HiBiT protein abundance assay, MYB (K562 HiBiT knock-in cells). Particulars: 24 hours. The series is classed as cell-based, human. An outline of the steps:
as §2

The test system of the next series is MYB mRNA. Put plainly: Gene panel canonical junction qPCR assay, MYB CJ mRNA decrease. To be noted: Homo sapiens, canonical junction qPCR, read-out: MYB IC50 (decrease in CJ mRNA levels). The series is classed as cell-based, human. An outline of the steps: as §1
The subject of another series is SMN2 mRNA. Put plainly: Gene panel canonical junction qPCR assay, SMN2 CJ mRNA decrease. Particulars: Homo sapiens, canonical junction qPCR, read-out: SMN2 IC50 (decrease in CJ mRNA levels). The series is classed as cell-based, human. An outline of the steps:
as §1

Consider `CN[C@H]1CCN(c2ccc(C(=O)Nc3cc(F)c4nc(C)cn4c3)c3nnccc23)C1` [Compound 239, (S)—N-(8-fluoro-2-methylimidazo[1,2-a]pyridin-6-yl)-5-(3-(methylamino)pyrrolidin-1-yl)cinnoline-8-carboxamide], for which the IC50 is 1000 to 10000 nM with Target C mRNA; 1000 to 10000 nM with HTT mRNA; 100 to 1000 nM in the series with HiBiT-tagged HTT protein; less than 100 nM in the series with HiBiT-tagged MYB protein; less than 100 nM in the series with MYB mRNA; less than 100 nM in the series on SMN2 mRNA. The Viability result with K562 cells is “B (B represents 100-1000 nM)”.
Consider `Cc1cn2cc(NC(=O)c3ccc(N4CC[C@@H](N(C)C)C4)c4nccnc34)cc(F)c2n1` [Compound 242, 8-[(3R)-3-(dimethylamino)pyrrolidin-1-yl]-N-{8-fluoro-2-methylimidazo[1,2-a]pyridin-6-yl}quinoxaline-5-carboxamide], for which the IC50 in the series on Target C mRNA was greater than 10000 nM; in the series on HTT mRNA, greater than 10000 nM; with HiBiT-tagged HTT protein, greater than 10000 nM; in the series with HiBiT-tagged MYB protein, 100 to 1000 nM; in the series on MYB mRNA, 100 to 1000 nM; in the series on SMN2 mRNA, less than 100 nM. Besides, in the series with K562 cells, the Viability result is given as “B (B represents 100-1000 nM)”.
In the case of `COc1cnc2c(N3CC[C@@H](N(C)C)C3)ccc(C(=O)Nc3cc(F)c4nc(C)cn4c3)c2n1` [Compound 244, 8-[(3R)-3-(dimethylamino)pyrrolidin-1-yl]-N-{8-fluoro-2-methylimidazo[1,2-a]pyridin-6-yl}-3-methoxyquinoxaline-5-carboxamide], the IC50 was 100 to 1000 nM in the series with Target C mRNA; 100 to 1000 nM in the series with HTT mRNA; 100 to 1000 nM in the series with HiBiT-tagged HTT protein; less than 100 nM in the series on HiBiT-tagged MYB protein; less than 100 nM in the series on MYB mRNA; less than 100 nM in the series with SMN2 mRNA. Also, the Viability entry in the series with K562 cells is “A (A represents <100 nM)”.
Turning to `Cc1cn2cc(NC(=O)c3ccc([C@H]4CCNC4)c4nccnc34)cc(F)c2n1` [Compound 246], the 50% inhibitory concentration (IC50) in the series with Target C mRNA was greater than 10000 nM; with HTT mRNA it was 1000 to 10000 nM; with HiBiT-tagged HTT protein, 1000 to 10000 nM; in the series on HiBiT-tagged MYB protein it was 100 to 1000 nM; in the series on MYB mRNA, 100 to 1000 nM; in the series with SMN2 mRNA it was less than 100 nM. In addition, the Viability entry with K562 cells is reported as “B (B represents 100-1000 nM)”.
Take `Cc1cn2cc(NC(=O)c3ccc(N4CCN[C@@H](C(C)C)C4)c4nccnc34)cc(F)c2n1` [Compound 250, N-{8-fluoro-2-methylimidazo[1,2-a]pyridin-6-yl}-8-[(3S)-3-isopropylpiperazin-1-yl]quinoxaline-5-carboxamide]: the IC50 with Target C mRNA is greater than 10000 nM; with HTT mRNA it was greater than 10000 nM; in the series with HiBiT-tagged HTT protein, greater than 10000 nM; in the series on HiBiT-tagged MYB protein, 100 to 1000 nM; with MYB mRNA it was 100 to 1000 nM; in the series on SMN2 mRNA it was less than 100 nM. In the series on K562 cells, the Viability result is on record as “B (B represents 100-1000 nM)”.
As to `Cc1cn2cc(NC(=O)c3ccc(N4CCN[C@@H](C5CC5)C4)c4nccnc34)cc(F)c2n1` [Compound 252, 8-[(3S)-3-cyclopropylpiperazin-1-yl]-N-{8-fluoro-2-methylimidazo[1,2-a]pyridin-6-yl}quinoxaline-5-carboxamide], the IC50 in the series on Target C mRNA is greater than 10000 nM; in the series with HTT mRNA, greater than 10000 nM; in the series on HiBiT-tagged HTT protein, 1000 to 10000 nM; in the series on HiBiT-tagged MYB protein it was 100 to 1000 nM; in the series on MYB mRNA, 100 to 1000 nM; in the series on SMN2 mRNA, less than 100 nM. The Viability entry with K562 cells is “B (B represents 100-1000 nM)”.
`Cc1cn2cc(NC(=O)c3ccc(N4CCN[C@H](C5CC5)C4)c4nccnc34)cc(F)c2n1` [Compound 253, 8-[(3R)-3-cyclopropylpiperazin-1-yl]-N-{8-fluoro-2-methylimidazo[1,2-a]pyridin-6-yl}quinoxaline-5-carboxamide]: the IC50 in the series on Target C mRNA was greater than 10000 nM; in the series on HTT mRNA, 1000 to 10000 nM; in the series with HiBiT-tagged HTT protein it was 1000 to 10000 nM; with HiBiT-tagged MYB protein, less than 100 nM; with MYB mRNA, less than 100 nM; with SMN2 mRNA, less than 100 nM. The Viability entry in the series with K562 cells was “A (A represents <100 nM)”.
In the case of `Cc1cn2cc(NC(=O)c3ccc(N4CCN5CCOC[C@@H]5C4)c4nccnc34)cc(F)c2n1` [Compound 255, (S)—N-(8-fluoro-2-methylimidazo[1,2-a]pyridin-6-yl)-8-(hexahydropyrazino[2,1-c][1,4]oxazin-8(1H)-yl)quinoxaline-5-carboxamide], the IC50 in the series on Target C mRNA, in the series on HTT mRNA, in the series on HiBiT-tagged HTT protein, in the series on HiBiT-tagged MYB protein, with MYB mRNA and with SMN2 mRNA was 100 to 1000 nM throughout. Besides, in the series on K562 cells, the Viability result is listed as “B (B represents 100-1000 nM)”.
For the molecule `Cc1cn2cc(NC(=O)c3ccc(N4CCN5CCOC[C@H]5C4)c4nccnc34)cc(F)c2n1` [Compound 256, (R)—N-(8-fluoro-2-methylimidazo[1,2-a]pyridin-6-yl)-8-(hexahydropyrazino[2,1-c][1,4]oxazin-8(1H)-yl)quinoxaline-5-carboxamide], the IC50 in the series on Target C mRNA, with HTT mRNA, in the series on HiBiT-tagged HTT protein, in the series with HiBiT-tagged MYB protein, in the series with MYB mRNA and in the series with SMN2 mRNA was 1000 to 10000 nM in each case. Besides, the Viability result in the series with K562 cells is “C (C represents 1000-9999 nM)”.
For `Cc1cn2cc(NC(=O)c3ccc(N4CC(C)NC(C)C4)c4nc(C)c(C)nc34)cc(F)c2n1` (stereo not shown) [Compound 257], the IC50 in the series on Target C mRNA was 1000 to 10000 nM; in the series on HTT mRNA it was 1000 to 10000 nM; in the series on HiBiT-tagged HTT protein, 1000 to 10000 nM; in the series on HiBiT-tagged MYB protein, 1000 to 10000 nM; in the series on MYB mRNA, 100 to 1000 nM; with SMN2 mRNA, less than 100 nM. For the same molecule, the Viability result in the series with K562 cells is listed as “B (B represents 100-1000 nM)”.
As to `Cc1cn2cc(NC(=O)c3ccc(N4CCC(NC5CC5)CC4)c4nccnc34)cc(F)c2n1` [Compound 258, 8-(4-(cyclopropylamino)piperidin-1-yl)-N-(8-fluoro-2-methylimidazo[1,2-a]pyridin-6-yl)quinoxaline-5-carboxamide], the IC50 in the series on Target C mRNA was 100 to 1000 nM; with HTT mRNA it was 100 to 1000 nM; with HiBiT-tagged HTT protein it was 100 to 1000 nM; in the series on HiBiT-tagged MYB protein, less than 100 nM; with MYB mRNA, 100 to 1000 nM; with SMN2 mRNA, less than 100 nM. The Viability entry in the series with K562 cells is recorded as “B (B represents 100-1000 nM)”.
On to `Cc1cn2cc(NC(=O)c3ccc(N4CCC(NC5CC5)CC4)c4ccnnc34)cc(F)c2n1` [Compound 259, 5-[4-(cyclopropylamino)piperidin-1-yl]-N-{8-fluoro-2-methylimidazo[1,2-a]pyridin-6-yl} cinnoline-8-carboxamide], for which the IC50 was 1000 to 10000 nM in the series on Target C mRNA; 100 to 1000 nM with HTT mRNA; 100 to 1000 nM in the series with HiBiT-tagged HTT protein; less than 100 nM with HiBiT-tagged MYB protein; less than 100 nM with MYB mRNA; less than 100 nM with SMN2 mRNA. Besides, the Viability result in the series with K562 cells is “A (A represents <100 nM)”.
On to `COc1nc2c(N3C[C@@H](C)N[C@@H](C)C3)ccc(C(=O)Nc3cc(F)c4nc(C)cn4c3)c2nc1C` [Compound 260, 8-((3R,5S)-3,5-dimethylpiperazin-1-yl)-N-(8-fluoro-2-methylimidazo[1,2-a]pyridin-6-yl)-2-methoxy-3-methylquinoxaline-5-carboxamide; 2,2,2-trifluoroacetate], for which the IC50 in the series on Target C mRNA was 1000 to 10000 nM; in the series with HTT mRNA, 100 to 1000 nM; in the series with HiBiT-tagged HTT protein, 1000 to 10000 nM; in the series with HiBiT-tagged MYB protein it was less than 100 nM; in the series with MYB mRNA, 100 to 1000 nM; in the series with SMN2 mRNA it was less than 100 nM. Besides, the Viability result in the series with K562 cells was “C (C represents 1000-9999 nM)”.
On to `Cc1cn2cc(NC(=O)c3c(F)cc(N4C[C@@H](C)N[C@@H](C)C4)c4nccnc34)cc(F)c2n1` [Compound 261, cis-8-[(3R,5S)-3,5-dimethylpiperazin-1-yl]-6-fluoro-N-{8-fluoro-2-methylimidazo[1,2-a]pyridin-6-yl}quinoxaline-5-carboxamide], for which the IC50 in the series with Target C mRNA is 1000 to 10000 nM; with HTT mRNA, 1000 to 10000 nM; with HiBiT-tagged HTT protein, 1000 to 10000 nM; in the series on HiBiT-tagged MYB protein it was less than 100 nM; in the series on MYB mRNA, less than 100 nM; in the series on SMN2 mRNA, less than 100 nM. Also, the Viability result in the series with K562 cells is reported as “B (B represents 100-1000 nM)”.
Take `Cc1cn2cc(NC(=O)c3ccc(N4C[C@@H](C)N[C@@H](C5CC5)C4)c4nccnc34)cc(F)c2n1` [Compound 266, 8-((3S,5R)-3-cyclopropyl-5-methylpiperazin-1-yl)-N-(8-fluoro-2-methylimidazo[1,2-a]pyridin-6-yl)quinoxaline-5-carboxamide]: the IC50 is greater than 10000 nM in the series on Target C mRNA; 1000 to 10000 nM in the series on HTT mRNA; 100 to 1000 nM in the series with HiBiT-tagged HTT protein; less than 100 nM in the series with HiBiT-tagged MYB protein; less than 100 nM in the series with MYB mRNA; less than 100 nM in the series with SMN2 mRNA. Moreover, the Viability entry in the series on K562 cells is on record as “B (B represents 100-1000 nM)”.
Regarding `Cc1cn2cc(NC(=O)c3ccc(N4C[C@@H](C5CC5)N[C@@H](C)C4)c4nccnc34)cc(F)c2n1` [Compound 267, 8-((3R,5S)-3-cyclopropyl-5-methylpiperazin-1-yl)-N-(8-fluoro-2-methylimidazo[1,2-a]pyridin-6-yl)quinoxaline-5-carboxamide], the IC50 with Target C mRNA was 1000 to 10000 nM; in the series on HTT mRNA, greater than 10000 nM; in the series on HiBiT-tagged HTT protein it was 1000 to 10000 nM; in the series with HiBiT-tagged MYB protein, 100 to 1000 nM; in the series on MYB mRNA, 100 to 1000 nM; in the series with SMN2 mRNA, less than 100 nM. The Viability result in the series with K562 cells was “B (B represents 100-1000 nM)”.

The values above are taken from patent US20240409536A1, “COMPOUNDS AND METHODS FOR MODULATING SPLICING” (REMIX THERAPEUTICS INC., priority 2021, published 2024).
